Experimental data: patent publication US12599662B2, “Methods and compositions for treating cancers” (INSERM (INSTITUT NATIONAL DE LA SANTÉ ET DE LA RECHERCHE …, priority 2018, dated 2026)

Key:
4T1 cells [1] = test: Vaccination study with irradiated hESC + adjuvants + VPA on 4T1 mice model; assay type: in vivo; conditions: for Percentage of tumor reduction (% of reduction): day 26, compared to control group receiving only PBS, irradiated hESC vaccine + named adjuvant, VPA 4 mg/ml in drinking water, 4T1 in mammary fat pad
Protocol: FIG. 1: Vaccination study with hESC combined with Valproic acid (VPA), Poly(A:U), ODN 2395 or Quil-A® adjuvant on 4T1 mice model. Vaccination study with hESC combined with Valproic acid (VPA), Poly(A:U), ODN 2395 or Quil-A® adjuvant on 4T1 mice model. Blab/c mice two boosts of vaccine containing 3 different adjuvants the day of tumor challenge. Tumor growth was assessed until 26 days to follow the tumor size using calipers permitting to measure both the longitudinal (a, mm) and transverse (b, mm) diameters. Tumor volume was calculated and plotted using calculation formula 1/6Π(a+b/2)3 mm3.
The experiment was carried out as followed: Five mice per group received two boosts of vaccine 7 and 14 days with 2×10^6 irradiated hESCs cells that were mixed with 3 different adjuvants: 500 μg of TLR3, 50 μg of TLR9 agonist or 50 μg/ml of Quil-A® Saponin vaccine adjuvant. After 14 days 5×10^4 4T1 cells were injected into the mammary fat pad of the mice and Valproic acid added in the drinking water at the dose of 4 mg/ml. Five mice receiving no treatment were used as control.
Adjuvants used in the vaccine product: Three different adjuvants were tested: • 1/ A TLR3-based adjuvant: Poly(A:U) (ref #tlrl-pau, InvivoGen) Polyadenylic-polyuridylic acid (poly(A:U)) is a synthetic double stranded RNA molecule that specifically signals through TLR3. Poly(A:U) is known to induce the activation of dendritic cells and T lymphocytes, to promote antigen-specific Th1-immune responses and to boost antibody production. […]

HDACs = conditions: cited from earlier work
LLC1 [2] = test: MHC class I and II expression on LLC1 by flow cytometry; assay type: cell-based; conditions: for MHC class 2 expression: LLC1, dose corresponding to IC50; for increase of expression of MHC1 on the cell membrane: LLC1, dose corresponding to IC50, 48 hours, compared to untreated cells
Text: FIG. 3: HDACi up-regulates MHC1 in Lung cancer cell lines. […] MHCI and MHCII expression was quantified by flow cytometry analysis measuring the Relative Fluorescence Intensity (RFI).
(§1) Non-small cell lung cancer (NSCLC) cell line (lewis lung carcinoma, LLC) expressing a particularly aggressive metastatic phenotype was used.

LLC1 [3] = test: MTT cell proliferation assay on LLC1; assay type: cell-based; conditions: Mus musculus
Protocol: as §1
The half maximal inhibitory concentration (IC50) was first determined for each HDACi using an MTT cell proliferation assay. LLC1 was treated with an increasing dose of HDCAi and proliferation was estimated measuring the absorbance after the incorporation by the cell of MMT (3-(4,5-dimethylthiazol-2-yl)-2,5-diphenyl tetrazolium bromide) substrate.

[4] = tested on: mammosphere-derived 4T1 cells; test: MHC I expression on 4T1-derived mammospheres by flow cytometry; assay type: cell-based; conditions: 2 mM VPA
Protocol: (§2) FIG. 2: Valproic acid treatment increases MHC I expression in breast tumor cells. Variation in MHC I expression during VPA treatment at 2 mM on 4T1 adherent cells and on 4T1-derived mammospheres.
(§3) 4T1 cells are a triple negative breast cancer cell line that was incubated with increased doses (0.2 and 2 mM) of valproic acid (VPA). After 4 days of treatment, the MHC I surface marker was quantified by flow cytometry analysis.

4T1 cells [5] = test: Surface marker expression on 4T1 cells by flow cytometry; assay type: cell-based
Protocol: as §2, §3

4T1 cells [6] = test: Transcriptome analysis of VPA-treated 4T1 cells; assay type: cell-based; conditions: 0.5 mM VPA for 10 days versus non-VPA treated cells
Protocol: To determine the effect of VPA on 4T1 cells, a transcriptome analysis on cells treated with 0.5 mM of VPA for 10 days was performed and compared with that of non-VPA treated cells. These analyses allowed for the identification of the set of genes implicated in TNF-α signaling and in the response of IFN-α and IFN-γ. In addition, the use of the SAM algorithm allowed for the discrimination of 44 immune-related genes between the VPA-treated samples and their control counterparts, which were validated by principal component analysis (p-value=3.3×10^−4). […] These three molecules are known to contribute to the clonal expansion, survival, and development of T cells and regulate CD28 co-stimulation to promote Th1 cell responses. Consequently, this HDACi improves the immune response against the cancer cells.

Molecule | Percentage of tumor reduction (% of reduction) (4T1 cells [1]) [%] | MHC class 2 expression (LLC1 [2]) | increase of expression of MHC1 on the cell membrane (LLC1 [2]) [fold] | IC50 (LLC1 [3]) [µM] | other results
Polyadenylic-polyuridylic acid [Poly(A:U)] | 54 |  |  |  | reduction of breast tumor volume (4T1 cells [1]; hESC vaccine + adjuvant, versus TLR9 agonist or Quil-A, p<0.001): highest reduction of breast tumor volume
2-pyrrolidinone-n-butyric acid [PBA] |  |  |  |  | Ki (HDACs; major carboxylic acid metabolite of levetiracetam in humans, read-out: Ki for HDAC inhibition): 2250 µM
O=C(CCCCCCC(=O)Nc1ccccc1)NO [Vorinostat, N-Hydroxy-N′-phenyloctanediamide] |  | not modulated | 2 |  | 
CC[C@@H](C(N)=O)N1CCCC1=O [Levetiracetam] |  | not modulated | 2 | 2 to 4 | direct effect on HDACs (HDACs): no direct effect on HDACs
Nc1ccccc1NC(=O)c1ccc(CNC(=O)OCc2cccnc2)cc1 [Entinostat] |  | not modulated | 2 | 2 to 4 | 
CCCC(CCC)C(=O)O [VPA, acid-2-propylpentanoic] | 24 | not modulated | 2 | ~2000 | increase of MHC I expression (Relative Fluorescence Intensity) [4]: 2.7 fold; MHC I levels (4T1 cells [5]; 0.2 and 2 mM, 4 days of treatment): increasing MHC I levels in a dose-dependent manner; increase in PDL1 expression (4T1 cells [5]; 4T1 cells, 2 mM VPA): 2.1 fold; increase of MHC I expression (Relative Fluorescence Intensity) (4T1 cells [5]; 4T1 cells, 2 mM VPA): 2.1 fold; PDL2 expression (4T1 cells [5]; 4T1 cells, after VPA treatment): only weakly upregulated; fold change of CD74, CCL2 and TNFRSF9 expression (4T1 cells [6]): greater than 2; MHC1 overexpression versus non-treated LLC1 cells (LLC1 [2]; LLC1, FIG. 3A): 10 folds
